US6358538B1, “Method for protecting plants from fungus” (priority 1999, dated 2002)

Tested on: fungus
Source text: Various fertilizer quality nitrate salts have been used to test this effect, particularly potassium nitrate, ammonium nitrate, calcium nitrate, and sodium nitrate.

## O=[N+]([O-])O [nitrate ions, nitrate]
At the sprinkler/mist head, plants in open ground plots, approx. 10 pounds nitrate salts per acre in approx. 1,000 gallons of water
  concentration of nitrate ions in the solution found to be generally effective: 700 parts per million of water
Weak solutions, fungi on ground surface and plant surfaces, under certain conditions
  effect on germination of fungal spores and subsequent development: fungistatic effect
